US20100016213A1, “USE OF A DITERPENOID COMPOUND FOR TREATING DIABETES” (National Taiwan University, priority 2008, published 2010)

What was measured:
Type in all cases: in vivo
[1] = test system: STZ-induced diabetic mice; assay: Lowering plasma glucose level, intraperitoneal injection, STZ-induced diabetic mice (type I diabetes model); conditions: for Plasma Glucose Level, After: after treatment; for Plasma Glucose Level, Before: before treatment
Experimental: Normal and streptozotocin (STZ)-induced diabetic mice were administered with borapetoside A (5.0 mg/kg), borapetoside C (5.0 mg/kg), glibenclamide (5.0 mg/kg), metformin (500.0 mg/kg), or a vehicle control via intraperitoneal injection. STZ-induced diabetic mice are a well-known mouse model of type I diabetes (insulin dependent). See, e.g., Liu I M, et al., Neuroscience Letters 2001; 307: 81-84. Glibenclamide and metformin serve as two positive controls in this study.
The plasma glucose levels of the treated mice were determined before and one hour after administration. The activity of lowering plasma glucose levels (AL) is calculated following the formula: […]
Borapetoside C was administered to normal mice at 0.1, 1.0, 3.0, and 5.0 mg/kg and to STZ-diabetic mice at 0.1, 1.0, 3.0, and 5.0 mg/kg. The plasma glucose levels of the treated mice were examined before and after treatment.

Normal ICR mice = assay: Intraperitoneal glucose tolerance test (IPGTT), normal ICR mice; conditions: borapetoside C 5.0 mg/kg
Experimental: (§1) Normal ICR mice and DIO-induced diabetic mice, treated with borapetoside C (5.0 mg/kg), a vehicle control, or glibenclamide (positive control), were subjected to an intraperitoneal glucose tolerance test (IPGTT) as described in Lamont et al., Diabetes 2008; 57: 190-198. More specifically, glucose (2.0 mg/g body weight) was administered via IP injection to normal and DIO mice and blood samples were drawn from the treated mice before and 30, 60, 120, and 150 min after glucose administration for examination of glucose levels.
In normal mice treated with borapetoside C, the vehicle control, and glibenclamide, the basal plasma glucose concentrations were 106.8±4.7 mg/dL, 114.7±4.6 mg/dL, and 104.9±3.1 mg/dL, respectively. Thirty minutes after intraperitoneal glucose injection, the plasma glucose concentration was elevated to 346.2±14.7 mg/dL in vehicle-treated mice, to 292.9±10.9 mg/dL in borapetoside C-treated mice, or to 273.4±13.6 mg/dL in glibenclamide-treated mice.

normal mice = assay: Glycogen content in skeletal muscle, normal mice; conditions: 5 mg/kg i.p., 30 minutes after injection
Experimental: (§2) Normal, STZ-induced diabetic, and DIO-induced diabetic mice were intraeritoneally injected with borapetoside C (5 mg/kg) and Actrapid (0.5 IU/kg; a short-acting insulin provided by Novo Nordisk) or metformin (500 mg/kg). Their glycogen contents in skeletal muscle were determined 30 minutes after injections.

[2] = test system: DIO-induced diabetic mice; assay: Lowering plasma glucose level, intraperitoneal injection, diet-induced obesity diabetic mice (type II diabetes model); conditions: for plasma glucose level one hour after treatment: basal (untreated) 174.6±7.7 mg/dL
Experimental: Normal and diet-induced obesity diabetic mice (“DIO-induced diabetic mice) were administered with borapetoside A (5.0 mg/kg), borapetoside C (5.0 mg/kg), glibenclamide (5.0 mg/kg), metformin (500.0 mg/kg), or a vehicle control via intraperitoneal injection. DIO-induced diabetic mice are a well-known mouse model of type II diabetes (non-insulin dependent). See Liu et al., J Mol. Endocrinol. 2008.
The plasma glucose levels of the treated mice were determined before and one hour after administration. The activities of these compounds for lowering plasma glucose levels were calculated as described above.
Borapetoside C was administered to DIO-induced diabetic mice at 0.1, 1.0, 3.0, and 5.0 mg/kg and the plasma glucose levels were examined before and after administration. The basal plasma glucose concentration in diet-induced diabetic mice (untreated) was 174.6±7.7 mg/dL. One hour after treatment, the plasma glucose levels in mice treated with vehicle control, 0.1 mg/kg borapetoside C, 1.0 mg/kg borapetoside C, 3.0 mg/kg borapetoside C, and 5.0 mg/kg borapetoside C were 172.5±10.9 mg/dL, 170.5±6.8 mg/dL, 127.9±6.0 mg/dL, 121.3±4.3 mg/dL and 119.9±4.6 mg/dL, respectively.

[3] = test system: DIO-induced diabetic mice; assay: Intraperitoneal glucose tolerance test (IPGTT), DIO-induced diabetic mice; conditions: diet-induced diabetic mice, borapetoside C 5.0 mg/kg
Experimental: as §1
In diet-induced diabetic mice treated with borapetoside C, the vehicle control, and glibenclamide, the basal plasma glucose concentrations were 181.6±12.3 mg/dL, 183.1±2.9 mg/dL, and 185.3±7.7 mg/dL, respectively. Thirty minutes after intraperitoneal glucose injection, the plasma glucose concentration was elevated to 405.6±8.9 mg/dL in vehicle-treated mice, to 343.5±11.2 mg/dL in borapetoside C-treated mice, or to 339.1±15.4 mg/dL in glibenclamide-treated mice.

[4] = test system: STZ-induced diabetic mice; assay: Insulin sensitivity: plasma glucose reduction with insulin plus borapetoside C or vehicle, STZ-induced diabetic mice; conditions: thirty minutes after insulin
Experimental: The effect of borapetoside C on insulin sensitivity was tested following the method described in Liu, et al., Clinical and Experimental Pharmacology and Physiology 2005; 32: 649-654. Normal mice (n=6), STZ-induced diabetic mice (n=5), and DIO-induced diabetic mice (n=7) were treated with insulin at various doses (i.e., 0.1 IU/kg, 0.5 IU/kg, and 1.0 IU/kg) together with either borapetoside C (0.1 mg/kg) or a vehicle control. Their plasma glucose levels were examined before and thirty minutes after insulin administration. The activity of lowering plasma glucose levels (AL) was calculated following the formula described in Example 2 above.

STZ-diabetic mice (IDDM) = assay: Lowering plasma glucose levels via oral administration, STZ-diabetic mice; conditions: oral 10.0 mg/kg, sixty minutes after treatment, mean ± SEM, six animals
Experimental: Normal, STZ-induced diabetic mice, and diet-induced diabetic mice were administered orally with 10.0 mg/kg borapetoside C, glibenclamide or metformin as a positive control, and a vehicle control. The plasma glucose levels of the treated mice were determined before and sixty minutes after treatment and the results thus obtained were shown in Table 3 below.

STZ-diabetic mice(IDDM) = assay: Glycogen content in skeletal muscle, STZ-diabetic mice; conditions: 5 mg/kg i.p., 30 minutes after injection
Experimental: as §2

[5] = 5.0 mg/kg intraperitoneal injection, one hour after administration

## COC(=O)C1=CCC[C@H]2[C@]3(C)C[C@@H](c4ccoc4)OC(=O)[C@@H]3C[C@@H](O[C@@H]3O[C@H](CO)[C@@H](O)[C@H](O)[C@H]3O)[C@@]12C [borapetoside C]
[1]; 0.1 mg/kg
  Plasma Glucose Level, After: 529.0 ± 14.7 mg/dL
  Plasma Glucose Level, Before: 580.0 ± 7.8 mg/dL
[1]; 1.0 mg/kg
  Plasma Glucose Level, After: 472.2 ± 13.9 mg/dL
  Plasma Glucose Level, Before: 566.6 ± 11.4 mg/dL
[1]; 3.0 mg/kg
  Plasma Glucose Level, After: 493.8 ± 15.3 mg/dL
  Plasma Glucose Level, Before: 572.2 ± 16.2 mg/dL
[1]; [5]
  Activities of Lowering Plasma Glucose Levels (AL): 16.5 ± 2.9%
[1]; 5.0 mg/kg
  Plasma Glucose Level, After: 481.1 ± 20.8 mg/dL
  Plasma Glucose Level, Before: 576.0 ± 11.1 mg/dL
Normal ICR mice; before glucose injection
  basal plasma glucose concentration (IPGTT): 106.8 ± 4.7 mg/dL
Normal ICR mice; glucose 2.0 mg/g IP
  plasma glucose levels at 60 min, 120 min, and 150 min versus control mice (IPGTT): significantly lower
Normal ICR mice; glucose 2.0 mg/g body weight IP, vehicle 346.2±14.7
  plasma glucose concentration thirty minutes after intraperitoneal glucose injection (IPGTT): 292.9 ± 10.9 mg/dL
Normal mice
  Glycogen content (μmol/g wet weight): 25.1 ± 1.3 μmol/g wet weight
[2]; 0.1 mg/kg
  plasma glucose level one hour after treatment: 170.5 ± 6.8 mg/dL
[2]; 1.0 mg/kg
  plasma glucose level one hour after treatment: 127.9 ± 6.0 mg/dL
[2]; 3.0 mg/kg
  plasma glucose level one hour after treatment: 121.3 ± 4.3 mg/dL
[2]; [5]
  AL (activity of lowering plasma glucose levels): 29.4±1.0%
[2]; 5.0 mg/kg
  plasma glucose level one hour after treatment: 119.9 ± 4.6 mg/dL
[3]; before glucose injection
  basal plasma glucose concentration (IPGTT): 181.6 ± 12.3 mg/dL
[3]; glucose 2.0 mg/g IP
  plasma glucose levels at 60 min, 120 min, and 150 min versus control mice (IPGTT): significantly lower
[3]; glucose 2.0 mg/g body weight IP, vehicle 405.6±8.9
  plasma glucose concentration thirty minutes after intraperitoneal glucose injection (IPGTT): 343.5 ± 11.2 mg/dL
[4]; Borapetoside C 0.1 mg/kg together with Insulin 0.1 IU/kg
  AL (%): 10.5 ± 1.4%
[4]; Borapetoside C 0.1 mg/kg together with Insulin 0.5 IU/kg
  AL (%): 18.9 ± 2.1%
[4]; Borapetoside C 0.1 mg/kg together with Insulin 1.0 IU/kg
  AL (%): 32.2 ± 2.1 %
STZ-diabetic mice (IDDM)
  Activity of lowing plasma glucose levels (%): 17.7 ± 1.7 %
STZ-diabetic mice(IDDM)
  Glycogen content (μmol/g wet weight): 23.2 ± 0.7 μmol/g wet weight
